# Results taken from ChEMBL document CHEMBL1201862, “PubChem BioAssay data set” (2004).
#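 All cell lines were grown in 96-well plates and treated with compound for 48 hours. At the GI50, growth is halved.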 Calls of active or inactive are those of the source. Cut-off read from the data, not from the text of the source: active = GI50 up to about 1.1 µM and inactive = higher.
# Columns and labels:
# Test in all cases: growth of human tumour cells (NCI), 48 h
# [1] = system: SK-MEL-5
# [2] = system: EKVX
# [3] = system: NCI/ADR-RES
# [4] = system: UACC-62
# [5] = system: SK-OV-3
# [6] = system: HOP-62
# [7] = system: 786-0
# [8] = system: T47D
# [9] = system: SK-MEL-2
# [10] = system: RXF 393
# [11] = system: SW-620
# [12] = system: OVCAR-5
# [13] = system: A549
# [14] = system: MCF7
# [15] = system: NCI-H23
# [16] = system: CAKI-1
# [17] = system: M14
# [18] = system: NCI-H226
# [19] = system: UO-31
# [20] = system: MOLT-4
# [21] = system: OVCAR-4
# [22] = system: KM12
# [23] = system: ACHN
# [24] = system: IGROV-1
# [25] = system: UACC-257
# [26] = system: HCT-15
# [27] = system: PC-3
# [28] = system: MDA-MB-435
# [29] = system: K562
# [30] = system: HOP-92
# [31] = system: SK-MEL-28
# [32] = system: HCC 2998
# [33] = system: SF-268
# [34] = system: U-251
# [35] = system: SF-295
# [36] = system: SF-539
# [37] = system: LOX IMVI
# [38] = system: Malme-3M
# [39] = system: MDA-N
# [40] = system: DU-145
# [41] = system: COLO 205
# [42] = system: BT-549
# [43] = system: TK-10
# [44] = system: OVCAR-8
# [45] = system: A498
# [46] = system: HL-60
# [47] = system: Hs-578T
# [48] = system: HCT-116
# [49] = system: HT-29
# [50] = system: CCRF-CEM
# [51] = system: SN12C
# [52] = system: SNB-19
# [53] = system: OVCAR-3
# [54] = system: NCI-H460
# [55] = system: NCI-H522
# [56] = system: MDA-MB-231
# [57] = system: RPMI-8226
# [58] = system: SNB-75
structure (smiles),measurement,setting,value
O=C(O)CCC1COc2ccccc2O1 (stereo not drawn),GI50,[1],> 10 µM (inactive)
same,GI50,[2],> 10 µM (inactive)
same,GI50,[3],> 10 µM (inactive)
same,GI50,[4],> 10 µM (inactive)
same,GI50,[5],> 10 µM (inactive)
same,GI50,[6],> 10 µM (inactive)
same,GI50,[7],> 10 µM (inactive)
same,GI50,[8],> 10 µM (inactive)
same,GI50,[9],> 10 µM (inactive)
same,GI50,[10],> 10 µM (inactive)
same,GI50,[11],> 10 µM (inactive)
same,GI50,[12],> 10 µM (inactive)
same,GI50,[13],> 10 µM (inactive)
same,GI50,[14],> 10 µM (inactive)
same,GI50,[15],> 10 µM (inactive)
same,GI50,[16],> 10 µM (inactive)
same,GI50,[17],> 10 µM (inactive)
same,GI50,[18],> 10 µM (inactive)
same,GI50,[19],> 10 µM (inactive)
same,GI50,[20],> 10 µM (inactive)
same,GI50,[21],> 10 µM (inactive)
same,GI50,[22],> 10 µM (inactive)
same,GI50,[23],> 10 µM (inactive)
same,GI50,[24],> 10 µM (inactive)
same,GI50,[25],> 10 µM (inactive)
same,GI50,[26],> 10 µM
same,GI50,[27],> 10 µM (inactive)
same,GI50,[28],> 10 µM (inactive)
same,GI50,[29],> 10 µM (inactive)
same,GI50,[30],> 10 µM (inactive)
same,GI50,[31],> 10 µM (inactive)
same,GI50,[32],> 10 µM (inactive)
same,GI50,[33],> 10 µM (inactive)
same,GI50,[34],> 10 µM (inactive)
same,GI50,[35],> 10 µM (inactive)
same,GI50,[36],> 10 µM (inactive)
same,GI50,[37],> 10 µM (inactive)
same,GI50,[38],> 10 µM (inactive)
same,GI50,[39],> 10 µM (inactive)
same,GI50,[40],> 10 µM (inactive)
same,GI50,[41],> 10 µM (inactive)
same,GI50,[42],> 10 µM (inactive)
same,GI50,[43],> 10 µM (inactive)
same,GI50,[44],> 10 µM (inactive)
same,GI50,[45],> 10 µM (inactive)
same,GI50,[46],> 10 µM (inactive)
same,GI50,[47],> 10 µM (inactive)
same,GI50,[48],> 10 µM (inactive)
same,GI50,[49],> 10 µM (inactive)
same,GI50,[50],> 10 µM (inactive)
same,GI50,[51],> 10 µM (inactive)
same,GI50,[52],> 10 µM (inactive)
same,GI50,[53],> 10 µM (inactive)
same,GI50,[54],> 10 µM (inactive)
same,GI50,[55],> 10 µM (inactive)
same,GI50,[56],> 10 µM (inactive)
same,GI50,[57],> 10 µM (inactive)
same,GI50,[58],> 10 µM (inactive)
